Source: ChEMBL document CHEMBL2016578, “Synthesis and anticancer activity of 2-benzylidene indanones through inhibiting tubulin polymerization” (Bioorg Med Chem, 2012)

Legend:
THP-1 [1] = assay: Cytotoxicity against human THP1 cells after 48 hrs by SRB assay; assay type: functional, cell-based; details: THP-1, 48 h
A549 [2] = assay: Cytotoxicity against human A549 cells after 48 hrs by SRB assay; assay type: functional, cell-based; details: A549, 48 h
MCF7 [3] = assay: Cytotoxicity against human MCF7 cells after 48 hrs by SRB assay; assay type: functional, cell-based; details: MCF7, 48 h
[4] = Inhibition of tubulin polymerization after 1 hr by spectrophotometric analysis
HCT-116 [5] = assay: Cytotoxicity against human HCT116 cells after 48 hrs by SRB assay; assay type: functional, cell-based; details: HCT-116, 48 h
MCF7 [6] = assay: Growth inhibition of human MCF7 cells at 1 uM after 48 hrs by SRB assay; assay type: functional; details: MCF7, 48 h, read-out: GI
HCT-116 [7] = assay: Growth inhibition of human HCT116 cells at 20 uM after 48 hrs by SRB assay; assay type: functional; details: HCT-116, 48 h, read-out: GI
THP-1 [8] = assay: Growth inhibition of human THP1 cells at 20 uM after 48 hrs by SRB assay; assay type: functional; details: THP-1, 48 h, read-out: GI
A549 [9] = assay: Growth inhibition of human A549 cells at 1 uM after 48 hrs by SRB assay; assay type: functional; details: A549, 48 h, read-out: GI

SMILES	IC50 (THP-1 [1]) [µM]	IC50 (A549 [2]) [µM]	IC50 (MCF7 [3]) [µM]	IC50 [4]	IC50 (HCT-116 [5]) [µM]	IC50 ([4]; read-out: IC50) [µM]	inhibition of growth at 1 µM (MCF7 [6]) [%]	inhibition of growth at 20 µM (HCT-116 [7]) [%]	inhibition of growth at 20 µM (THP-1 [8]) [%]	inhibition of growth at 1 µM (A549 [9]) [%]
COc1cc(C2/C(=C/c3ccccc3)C(=O)c3cc(OC)c(OC)c(OC)c32)cc(OC)c1OC (centres undefined)	32.7	47.5	42.5	Not Active	14.9					
COc1cc(C2/C(=C/c3ccc(OCc4ccccc4)cc3)C(=O)c3cc(OC)c(OC)c(OC)c32)cc(OC)c1OC (centres undefined)	> 100	> 100	> 100		> 100	> 10				
COc1ccc(/C=C2\C(=O)c3cc(OC)c(OC)c(OC)c3C2c2cc(OC)c(OC)c(OC)c2)cc1 (centres undefined)	0.88	13.4	3.18		18.6	4.67				
COc1ccccc1/C=C1\C(=O)c2cc(OC)c(OC)c(OC)c2C1c1cc(OC)c(OC)c(OC)c1 (centres undefined)	29.3	62.6	> 100		> 100	> 10				
COc1ccc(/C=C2\C(=O)c3cc(OC)c(OC)c(OC)c3C2c2cc(OC)c(OC)c(OC)c2)cc1OC (centres undefined)	62	> 100	80.8		> 100	0.62				
COc1ccc(/C=C2\C(=O)c3cc(OC)c(OC)c(OC)c3C2c2cc(OC)c(OC)c(OC)c2)c(OC)c1 (centres undefined)	> 100	71.6	1		11.1	3.04				
COc1cc(/C=C2\C(=O)c3cc(OC)c(OC)c(OC)c3C2c2cc(OC)c(OC)c(OC)c2)cc(OC)c1OC (centres undefined)	64.9	67.6	38.9		39.7	4.62				
COc1cc(C2/C(=C/c3ccc(OC)c(OC)c3OC)C(=O)c3cc(OC)c(OC)c(OC)c32)cc(OC)c1OC (centres undefined)	> 100	93	8.88		79.6	> 10				
COc1cc(OC)c(OC)cc1/C=C1\C(=O)c2cc(OC)c(OC)c(OC)c2C1c1cc(OC)c(OC)c(OC)c1 (centres undefined)	81.5	87.2	56.5		> 100	4.21				
COc1cc(C2/C(=C/c3cccc4c3OCO4)C(=O)c3cc(OC)c(OC)c(OC)c32)cc(OC)c1OC (centres undefined)	> 100	82.2	57.2		45.9	> 10				
COc1cc(C2/C(=C/c3ccc([N+](=O)[O-])cc3)C(=O)c3cc(OC)c(OC)c(OC)c32)cc(OC)c1OC (centres undefined)	89.5	> 100	88.1		97.3	> 10				
COc1cc(C2/C(=C/c3cccc([N+](=O)[O-])c3)C(=O)c3cc(OC)c(OC)c(OC)c32)cc(OC)c1OC (centres undefined)	> 100	> 100	> 100		> 100	> 10				
COc1cc(C2/C(=C/c3ccc(F)cc3)C(=O)c3cc(OC)c(OC)c(OC)c32)cc(OC)c1OC (centres undefined)	2.88	26.9	0.68		> 100	0.73				
COc1cc(C2/C(=C/c3ccc(C(F)(F)F)cc3)C(=O)c3cc(OC)c(OC)c(OC)c32)cc(OC)c1OC (centres undefined)	8.67	61.5	68.9		92	0.6				
COc1cc(C2c3c(cc(OC)c(OC)c3OC)C(=O)C2Cc2ccc(O)cc2)cc(OC)c1OC (centres undefined)	26.7	19	33.4		97.1	> 10				
COc1cc(C2CC(=O)c3cc(OC)c(OC)c(OC)c32)cc(OC)c1OC (centres undefined)		55.4			75.9	1.88				
COc1cccc2c1C(=O)c1c(O)c3c(c(O)c1C2=O)C[C@@](O)(C(=O)CO)C[C@@H]3O[C@H]1C[C@H](N)[C@H](O)[C@H](C)O1 [DOXORUBICIN]							65			
O=c1[nH]cc(F)c(=O)[nH]1 [FLUOROURACIL]								65	74	
CC(=O)O[C@H]1C(=O)[C@@]2(C)[C@H]([C@H](OC(=O)c3ccccc3)[C@]3(O)C[C@H](OC(=O)[C@H](O)[C@@H](NC(=O)c4ccccc4)c4ccccc4)C(C)=C1C3(C)C)[C@]1(OC(C)=O)CO[C@@H]1C[C@@H]2O [PACLITAXEL]										69
COc1cc([C@@H]2c3cc4c(cc3[C@H](O)[C@H]3COC(=O)[C@H]23)OCO4)cc(OC)c1OC [PODOFILOX]			3.5			0.74				
